Results from publication PMC11144398, “Crizotinib inhibits the metabolism of tramadol by non-competitive suppressing the activities of CYP2D1 and CYP3A2” (PeerJ, 2024).

Test system: liver, kidney and small intestine
Assay: Morphological examination (H&E staining) of liver, kidney and small intestine
Format: in vivo, Sprague-Dawley rats
Settings: crizotinib 45 mg/kg, single dose or 7 consecutive days; vs control group E
Procedure: […] […] The blood, liver, kidney, and small intestine were harvested within 10 min and flash-frozen in liquid nitrogen before being transferred to −80 °C for later use.
Additionally, the tissues were fixed in 10% formalin solution and embedded in paraffin. Hematoxylin-eosin (H&E) staining was performed on paraffin sections, which had been dewaxed, dehydrated, and sealed with neutral gum. Pannoramic MIDI was then used to observe the tissues.

C[C@@H](Oc1cc(-c2cnn(C3CCNCC3)c2)cnc1N)c1c(Cl)ccc(F)c1Cl [crizotinib]
changes in cell morphology, size, arrangement, nuclear morphology of liver, kidney and small intestine (H&E): no obvious changes
